Measured values as given in patent US20110294874A1, “DIAGNOSIS AND THERAPY OF ORGAN DYSFUNCTION USING SPHINGANINE-1-PHOSPHATE” (The Trustees of Columbia University in the City of New York, priority 2008, published 2011).
Where “and” joins values, the source holds several entries; their conditions need not be identical. Identical values can stand only once.

How the values were obtained:
[1] = system: C57BL/6 mice subjected to liver IR; test: Murine model of liver ischemia reperfusion (hepatic IR): plasma ALT and creatinine; assay type: in vivo, mouse; conditions: for Effect of pre-treatment on Sg1P-mediated renal and hepatic protection after liver IR: given prior to Sg1P treatment, serum creatinine and ALT; for Serum ALT (mean) / Serum creatinine (mean): C57BL/6 mice, 60 min liver ischemia, 24 h reperfusion; for Effect of pretreatment alone on kidney injury resulting from liver IR / Effect of pretreatment alone on liver injury resulting from liver IR: antagonist alone, no Sg1P
[2] = system: SK-deficient mice subjected to liver IR; test: Liver IR in SK-deficient mice (subtype not stated); assay type: in vivo, mouse; conditions: liver IR (data not shown)
Procedure: (§1) The effects of administering Sg1P (0.1 mg/kg i.v. and 0.2 mg/kg s.c.) on liver and renal injury were also determined in the KO mice and are also shown in Tables 9 and 10 below.

[3] = system: C57BL/6 mice subjected to liver IR; test: Kidney H&E histology after liver IR; assay type: in vivo, mouse; conditions: pre-treatment prior to Sg1P
Description: Liver IR-induced AKI in mice shared similar histological changes observed in human AKI associated with liver failure, as observed in H&E slides of kidney sections taken from the mice (see FIG. 3). Multifocal acute tubular injury including individual cell necrosis involving the juxtamedullary proximal tubules of the S3 segment was observed. […] Endothelial apoptosis of peritubular capillaries was also visible in H&E sections as linear arrays of apoptotic bodies corresponding to the interstitial capillary lining endothelium. […] The number of glomeruli with detectable juxtaglomerular apparatus and the number of cells per juxtaglomerular apparatus were both increased after liver IR, indicating hyperplasia of the juxtaglomerular apparatus. […] Liver IR produced large necrotic areas of liver tissue. The average percentage of necrotic areas in liver samples taken from liver IR mice were 92%±2% (n=6), while no necrosis was found in sham-operated mice. Livers were also analyzed for the degree of hepatocellular damage.

[4] = system: C57BL/6 mice subjected to liver IR; test: Liver H&E histology after liver IR (percent necrosis, Suzuki score); assay type: in vivo, mouse; conditions: pre-treatment prior to Sg1P treatment
Procedure: Mice were anesthetized with intraperitoneal pentobarbital (50 mg/kg or to effect). Mice were placed under a heating lamp and on a 37° C. heating pad. After a midline laparotomy and intraperitoneal application of 20 U heparin, left lateral and median lobes of the liver were subjected to ischemia with a microaneurysm clip occluding the hepatic triad above the bifurcation. This method of partial hepatic ischemia results in a segmental (˜70%) hepatic ischemia but spares the right lobe of the liver and prevents mesenteric venous congestion by allowing portal decompression throughout the right and caudate lobes of the liver. The liver was then repositioned in the peritoneal cavity in its original location for 60 minutes. The liver was kept moist with gauze soaked in 0.9% normal saline. The body temperature was monitored by an infrared temperature sensor (Linear Laboratories, Fremont, Calif.) every 10 min. and maintained at 37° C. using a heating lamp and a heating pad. After 60 minutes, the liver was reperfused and the wound closed. Sham-operated mice were subjected to laparotomy and identical liver manipulations without vascular occlusion. Two, 4 and 24 hr after reperfusion, plasma was collected for the measurement of alanine aminotransferase (ALT), a common indicator of liver damage, as well as creatinine (Cr) a common indicator of kidney damage. The liver tissue subjected to IR was collected to measure percent liver necrosis (2, 4 and 24 hr after IR), neutrophil infiltration (with immunohistochemistry, 4 and 24 hr after IR), apoptosis (with terminal deoxynucleotidyl transferase-mediated dUTP nick end labeling staining, caspase 3 immunoblotting and DNA laddering, 24 hr after IR), and inflammation by RT-PCR for pro-inflammatory mRNAs (4 hr after IR).
Livers were also analyzed for the degree of hepatocellular damage using the Suzuki's criteria (Suzuki et al., Transplantation 1993, Vol. 55, pp. 1265-1272). To obtain a Suzuki score, 3 liver injury indices are graded: sinusoidal congestion (0-4), hepatocyte necrosis (0-4), and ballooning degeneration (0-4) are graded for a total score of 0-12. No necrosis, congestion, or centrilobular ballooning is given a score of 0 whereas severe congestion/ballooning and >60% lobular necrosis is given a value of 4.

S1P1 and S1P3 receptors = conditions: cited from earlier work
[5] = system: SK2 KO mice subjected to liver IR; test: Liver IR in SK2 KO mice: plasma ALT and creatinine; assay type: in vivo, mouse; conditions: SK2KO, hepatic IR 24 h
Procedure: as §1

[6] = mouse, in vivo
[7] = system: SK1 KO mice subjected to liver IR; test: Liver IR in SK1 KO mice: plasma ALT and creatinine; assay type: in vivo, mouse; conditions: SK1KO, hepatic IR 24 h
Procedure: as §1

[8] = 0.1 mg/kg i.v. and 0.2 mg/kg s.c.

Cc1nn(C)c2nc(NNC(=O)Nc3cc(Cl)nc(Cl)c3)cc(C(C)C)c12 [JTE-013]
Effect of pre-treatment on Sg1P-mediated renal and hepatic protection after liver IR [1]: did not block

CCCCCCCCCCCCCCC[C@@H](O)[C@@H](N)CO [Sphinganine, sphinganine]
Kidney protection [2]: failed to provide kidney protection | Protective effect on the liver [2]: failed to provide protective effect on the liver | Serum ALT (mean) [1]: 7170 U/L | Serum creatinine (mean) [1]: 0.58 mg/dL | Serum ALT (mean) ([1]; listed as sphinganine): 7170±1282 U/L | Serum creatinine (mean) ([1]; listed as sphinganine): 0.58 ± 0.05 mg/dL

CC(=N)NCCC[C@H](N)C(=O)O [L-NIO]
Effect of pre-treatment on Sg1P-mediated renal and hepatic protection after liver IR [1]: had no effects

CCCCCCCCc1ccc(CCC(N)(CO)CO)cc1 [FTY720]
Serum creatinine (mean) [1]: 0.65 ± 0.06 mg/dL | serum ALT ([1]; liver IR, 1 mg/kg i.p. 30 min. prior to liver ischemia and 5 min prior to reperfusion, in U/L): 6435±944

CCCCCCc1cccc(NC(=O)[C@H](N)CCP(=O)(O)O)c1 [W146]
Effect of pre-treatment on protective effects of Sg1P on renal histology [3]: reduced the protective effects | Inhibition of Sg1P-mediated renal and hepatic protection ([1]; 0.1 mg/kg (i.p.) 10 minutes prior to liver ischemia): completely inhibit | Serum ALT (mean) [1]: 24452±1760 U/L and 24451 U/L | Serum creatinine (mean) [1]: 1.6 ± 0.2 mg/dL and 1.55 mg/dL | Effect of pretreatment alone on kidney injury resulting from liver IR [1]: exacerbated kidney injury | Effect of pretreatment alone on liver injury resulting from liver IR [1]: exacerbated liver injury | Inhibition of Sg1P's protective effects against liver and kidney injury ([1]; pre-treatment 0.01-0.2 mg/kg): dose-dependent | Necrotic areas in the liver after IR [4]: increased significantly

CCCCCCCCc1cccc(NC(=O)[C@H](N)COP(=O)(O)O)c1 [VPC]
Selectivity for S1P1 (over S1P3) (S1P1 and S1P3 receptors): 50 fold | Serum ALT (mean) [1]: 18253 U/L | Serum creatinine (mean) [1]: 1.61 mg/dL | Serum ALT (mean) ([1]; listed as VPC 23019): 18253±1709 U/L | Effect of pretreatment alone on kidney injury resulting from liver IR [1]: exacerbated kidney injury | Effect of pretreatment alone on liver injury resulting from liver IR [1]: exacerbated liver injury

FC(F)(F)c1cccc(-c2noc(-c3cc(-c4ccccc4)c(C(F)(F)F)s3)n2)c1 [SEW2871]
Serum ALT (mean) [1]: 6502±552 U/L | Serum creatinine (mean) [1]: 0.63 ± 0.08 mg/dL

CCCCCCCCCCCCC/C=C/[C@@H](O)[C@@H](N)CO [Sphingosine, sphingosine]
Serum ALT (mean) [1]: 9269 U/L | Serum creatinine (mean) [1]: 0.76 mg/dL | Serum ALT (mean) ([1]; listed as sphingosine): 9269±583 U/L | Serum creatinine (mean) ([1]; listed as sphingosine): 0.76 ± 0.06 mg/dL

COc1cccc(-c2cc(=O)c3ccccc3o2)c1N [PD98059]
Effect of pre-treatment on protective effects of Sg1P on renal histology [3]: reduced the protective effects | Effect of pre-treatment on Sg1P-mediated renal and hepatic protection after liver IR [1]: prevented | Necrotic areas in the liver after IR [4]: increased significantly

CCCCCCCCCCCCC/C=C/[C@@H](O)[C@@H](N)COP(=O)(O)O [S1P, sphingosine-1-phosphate]
Creatinine (mean) [5]: 0.880 mg/dL | ALT (mean) [5, 8]: 13165.08 U/L | Rescue of serum Sg1P levels [6]: completely rescued | Creatinine (mean) [7]: 1.035 mg/dL | ALT (mean) [7, 8]: 17416.67 U/L | Serum ALT (mean) [1]: 9178±1822 U/L and 9178 U/L | Serum creatinine (mean) [1]: 0.72 ± 0.13 mg/dL and 0.72 mg/dL

pertussis toxin
Effect of pre-treatment on protective effects of Sg1P on renal histology [3]: reduced the protective effects | Effect of pre-treatment on Sg1P-mediated renal and hepatic protection after liver IR [1]: prevented | Necrotic areas in the liver after IR [4]: increased significantly

CCCCCCCCCCCC1N[C@H](C(=O)O)CS1 (some centres unmarked) [BML-241]
Effect of pre-treatment on Sg1P-mediated renal and hepatic protection after liver IR [1]: did not block
